Patent US20190231666A1, “ANTI-DANDRUFF COMPOSITION” (Conopco, Inc., d/b/a UNILEVER, priority 2016, published 2019)

Tests used:
[1] = system: normal human epidermal keratinocytes (HEKa cells); assay: IL-8 release from keratinocytes stimulated with IL-17, IL-22 and TNFα; assay type: cell-based; conditions: 16 hrs
Experimental: To test the foregoing hypothesis, the inventors devised an in vitro model for the inflammatory conditions prevalent in the skin of subjects with dandruff. The model involves in vitro tissue culture of normal human epidermal keratinocytes (HEKa cells). The cells were exposed to a combination of IL-17, TNFα and IL-22 to stimulate an inflammatory-type response, which response was measured by production of IL-8 by the keratinocytes and also by analysis of their general gene expression profile. Adult proliferating human epidermal karatinocytes (HEKa) (from Thermo Fisher Scientific) used at low passage (p3 or lower). Cells were cultured in keratinocyte maintenance medium KGM Gold (Lonza Group) containing all components of the bullet kit plus 70 μM calcium. For the assay, cells were plated in KGM Gold with all components of the bullet kit except hydrocortisone and gentamycin, supplemented with 70 μM calcium. […] After 16 hrs the cell culture medium was removed and the amount of IL-8 cytokine released from the keratinocyte cells was quantified using a DuoSet IL-8 ELISA kit (R&D Systems Ltd). The keratinocyte cells were lysed in RIPA buffer and the total amount of protein in each sample quantified using a Pierce BCA protein assay kit (Thermofisher Ltd). […] All treatments were run in triplicate and a mean and standard deviation value calculated, the results being illustrated in FIG. 3.

[2] = 25° C.; cited from earlier work
MCF7 cells = conditions: 13 μM myricetin vs DMSO vehicle control, FIGS. 2A and 2B; cited from earlier work

In the case of `O=c1c(O)c(-c2cc(O)c(O)c(O)c2)oc2cc(O)cc(O)c12` [Myricetin, myricetin], the “inflammatory response to the cytokines (IL-8 release)” value ([1]; 6.5 μg/ml myricetin, IL-17 200 ng/ml, IL-22 200 ng/ml, TNFa 10 ng/ml, p=0.0001) is given as “marked inhibition”, the “production of IL-8 (inflammatory response)” value ([1]; HEKa cells, IL-17, TNFα and IL-22 stimulation, FIG. 3) is given as “significant reduction” and the solubility in water [2] is given as “about 55 mg/L”. For the same molecule, the “effect on gene expression changes observed in dandruff scalp skin relative to healthy scalp skin” value (MCF7 cells) was “reverse some of the gene expression changes”.
